Source: US9409952B2, “Peptide-compound cyclization method” (Chugai Seiyaku Kabushiki Kaisha, priority 2011, dated 2016)
Read-outs that look alike come from different tables or passages of the source. Starred links: 1 amine or outer side, 2 acyl side, 3 side chain; linkers in the order of their positions; H or OH if unused. Positions of bridges follow the written chain, without caps; N, C: chain ends. Non-standard residues stand in square brackets, D forms with d. Residues, ends and D or L forms follow the SMILES beside them. *: point of attachment. NMeF = CN[C@@H](Cc1ccccc1)C(=O)O; NMeGABA = CN(CCCC(=O)[*:2])[*:1]; NMeI = CC[C@H](C)[C@H](NC)C(=O)O; NMeβAla = CN(CCC(=O)[*:2])[*:1]; NMeL = CN[C@@H](CC(C)C)C(=O)O; NMeV = CN[C@H](C(=O)O)C(C)C; NMeA = CN[C@@H](C)C(=O)O; Piperidide = C1CCN(*)CC1; dNMeA = CN[C@H](C)C(=O)O; Sar = CNCC(=O)O; tBu = CC(C)(C)*

Tests used:
[1] = PAMPA (parallel artificial membrane permeability assay); type: in vitro ADME; details: PAMPA
In short: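 Artificial membrane was 10% (w/v) egg lecithin plus 0.5% (w/v) cholesterol in dodecane on a PVDF filter. A 10 mM DMSO stock was added at 0.5% (v/v) to donor buffer (50 mM MOPSO, pH 6.5, 5.0% glycocholic acid). After 18 h at 37 °C, LC/MS or LC/UV gave donor and acceptor levels for Pe.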

[2] = Metabolic stability in human hepatic microsome; type: in vitro ADME; details: microsomes
[3] = membrane permeation rate (Pe), 50 mM MOPSO buffer pH 6.5 with 5.0% glycocholic acid, 37° C., 18 hours, read-out: iPAMPA Pe
[4] = pH 7.4, human hepatic microsome, NADPH(+), read-out: CL NADPH(+)

| Structure (SMILES) | Papp at 18 hours, 50 µM [1, 3] | microsomal CLint at 1 uM [2, 4] | Papp at 18 hours, 50 µM ([1]; pH 6.5) | microsomal CLint at 1 uM ([2]; human, pH 7.4, CL NADPH(+)) |
| --- | --- | --- | --- | --- |
| CC(C)C[C@H]1C(=O)N[C@@H](COC(C)(C)C)C(=O)N[C@H](C(=O)N2CCCCC2)CC(=O)N(C)CCC(=O)N(C)[C@@H](C)C(=O)N(C)[C@@H](Cc2ccccc2)C(=O)N(C)[C@@H](CC(C)C)C(=O)N[C@@H]([C@@H](C)O)C(=O)N(C)[C@@H](C)C(=O)N1C [DP-269] ([NMeβAla][NMeA][NMeF][NMeL]T[NMeA][NMeL]S(tBu)D-Piperidide; lactam N-9) | 11 ×10⁻⁶ cm/s | 58 µL/min/mg | – | – |
| CC(C)C[C@H]1C(=O)N(C)[C@@H](Cc2ccccc2)C(=O)N[C@H](C(=O)N2CCCCC2)CC(=O)N(C)[C@H](C)C(=O)N[C@@H]([C@@H](C)O)C(=O)N(C)[C@@H](C)C(=O)N(C)[C@@H](Cc2ccccc2)C(=O)N[C@@H](COC(C)(C)C)C(=O)NCC(=O)N1C [DP-270] ([dNMeA]T[NMeA][NMeF]S(tBu)G[NMeL][NMeF]D-Piperidide; lactam N-9) | 22 ×10⁻⁶ cm/s | 79 µL/min/mg | – | – |
| CC(C)C[C@H]1C(=O)N(C)[C@@H](Cc2ccccc2)C(=O)NCC(=O)N[C@H](C(=O)N2CCCCC2)CC(=O)N(C)CC(=O)N[C@@H]([C@@H](C)O)C(=O)N(C)[C@@H](C)C(=O)N[C@@H](COC(C)(C)C)C(=O)N(C)[C@@H](Cc2ccccc2)C(=O)N1C [DP-271] ([Sar]T[NMeA]S(tBu)[NMeF][NMeL][NMeF]GD-Piperidide; lactam N-9) | 10 ×10⁻⁶ cm/s | 38 µL/min/mg | – | – |
| CC[C@H](C)[C@H]1C(=O)N[C@H](C(=O)N2CCCCC2)CC(=O)N(C)CCCC(=O)N(C)[C@@H](Cc2ccccc2)C(=O)N[C@@H]([C@@H](C)O)C(=O)N(C)CC(=O)N[C@@H](COC(C)(C)C)C(=O)N(C)[C@@H](CC(C)C)C(=O)N(C)[C@@H](CC(C)C)C(=O)N1C [DP-272] ([NMeGABA][NMeF]T[Sar]S(tBu)[NMeL][NMeL][NMeI]D-Piperidide; lactam N-9) | 49 ×10⁻⁶ cm/s | 82 µL/min/mg | – | – |
| CC[C@H](C)[C@@H]1NC(=O)[C@H](Cc2ccccc2)NC(=O)[C@H](C(C)C)N(C)C(=O)CCCN(C)C(=O)C[C@@H](C(=O)N2CCCCC2)NC(=O)[C@H](Cc2ccccc2)NC(=O)[C@H](CC(C)C)N(C)C(=O)CNC(=O)[C@H](CC(C)C)N(C)C(=O)[C@H](C)N(C)C(=O)[C@H]([C@@H](C)O)NC(=O)[C@H](CC(C)C)NC1=O [DP-273] ([NMeGABA][NMeV]FILT[NMeA][NMeL]G[NMeL]FD-Piperidide; lactam N-12) | – | – | 21 ×10⁻⁶ cm/s | 102 µL/min/mg |
| CC[C@H](C)[C@@H]1NC(=O)[C@H](Cc2ccccc2)N(C)C(=O)[C@H](Cc2ccccc2)NC(=O)[C@H]([C@@H](C)O)NC(=O)[C@H](C(C)C)N(C)C(=O)[C@H](CC(C)C)NC(=O)[C@H](CC(C)C)N(C)C(=O)CCCN(C)C(=O)C[C@@H](C(=O)N2CCCCC2)NC(=O)[C@H](C)NC(=O)[C@H](C)N(C)C1=O [DP-274] ([NMeGABA][NMeL]L[NMeV]TF[NMeF]I[NMeA]AD-Piperidide; lactam N-11) | – | – | 25 ×10⁻⁶ cm/s | 183 µL/min/mg |
| CC[C@H](C)[C@@H]1NC(=O)[C@H](CC(C)C)N(C)C(=O)[C@H](CC(C)C)N(C)C(=O)[C@H](C)NC(=O)CCCN(C)C(=O)C[C@@H](C(=O)N2CCCCC2)NC(=O)[C@H](CC(C)C)N(C)C(=O)[C@H](Cc2ccccc2)N(C)C(=O)CN(C)C(=O)[C@H]([C@@H](C)O)NC(=O)[C@H](Cc2ccccc2)N(C)C1=O [DP-275] ([NMeGABA]A[NMeL][NMeL]I[NMeF]T[Sar][NMeF][NMeL]D-Piperidide; lactam N-11) | – | – | 36 ×10⁻⁶ cm/s | 440 µL/min/mg |
| CC(C)C[C@H]1C(=O)N[C@@H](C)C(=O)N(C)[C@@H](Cc2ccccc2)C(=O)N2CCC[C@H]2C(=O)N(C)[C@@H](CC(C)C)C(=O)N(C)[C@@H](C(C)C)C(=O)N[C@H](C(=O)N2CCCCC2)CC(=O)N(C)CCCC(=O)N[C@@H]([C@@H](C)O)C(=O)N(C)CC(=O)N(C)[C@@H](Cc2ccccc2)C(=O)N1C [DP-276] ([NMeGABA]T[Sar][NMeF][NMeL]A[NMeF]P[NMeL][NMeV]D-Piperidide; lactam N-11) | – | – | 19 ×10⁻⁶ cm/s | 68 µL/min/mg |
| CC(C)C[C@H]1C(=O)N(C)[C@@H](C(C)C)C(=O)N[C@@H](Cc2ccccc2)C(=O)N[C@H](C(=O)N2CCCCC2)CC(=O)N(C)CCCC(=O)N[C@@H](COC(C)(C)C)C(=O)N(C)[C@@H](CC(C)C)C(=O)N(C)[C@@H](Cc2ccccc2)C(=O)N[C@@H]([C@@H](C)O)C(=O)NCC(=O)N1C [DP-277] ([NMeGABA]S(tBu)[NMeL][NMeF]TG[NMeL][NMeV]FD-Piperidide; lactam N-10) | 38 ×10⁻⁶ cm/s | 389 µL/min/mg | – | – |
| CC[C@H](C)[C@@H]1NC(=O)[C@H](C)N(C)C(=O)C[C@@H](C(=O)N(C)[C@@H](Cc2ccccc2)C(=O)N[C@@H](C)C(=O)N2CCCCC2)NC(=O)[C@H](CC(C)C)N(C)C(=O)[C@H](CC(C)C)NC(=O)[C@@H]2CCCN2C(=O)CNC(=O)[C@H](CC(C)C)N(C)C(=O)[C@H](Cc2ccccc2)N(C)C(=O)[C@H](Cc2ccccc2)NC(=O)[C@H]([C@@H](C)O)NC1=O [DP-280] ([NMeA]ITF[NMeF][NMeL]GPL[NMeL]D[NMeF]A-Piperidide; lactam N-11) | – | – | 21 ×10⁻⁶ cm/s | 28 µL/min/mg |
| CC[C@H](C)[C@@H]1NC(=O)[C@H](C)N(C)C(=O)[C@H](CC(C)C)N(C)C(=O)CCN(C)C(=O)C[C@@H](C(=O)N(C)[C@@H](Cc2ccccc2)C(=O)N[C@@H](C)C(=O)N2CCCCC2)NC(=O)[C@H](CC(C)C)N(C)C(=O)[C@H](Cc2ccccc2)N(C)C(=O)[C@H](Cc2ccccc2)N(C)C(=O)[C@H](C)N(C)C(=O)[C@H]([C@@H](C)O)NC(=O)[C@H](CC(C)C)N(C)C1=O [DP-281] ([NMeβAla][NMeL][NMeA]I[NMeL]T[NMeA][NMeF][NMeF][NMeL]D[NMeF]A-Piperidide; lactam N-11) | – | – | 17 ×10⁻⁶ cm/s | 28 µL/min/mg |
| CC(C)C[C@@H]1NC(=O)[C@H](CC(C)C)N(C)C(=O)CNC(=O)[C@H](Cc2ccccc2)NC(=O)[C@H](C(C)C)N(C)C(=O)[C@H](Cc2ccccc2)NC(=O)[C@H](C)N(C)C(=O)CCN(C)C(=O)C[C@@H](C(=O)N(C)[C@@H](Cc2ccccc2)C(=O)N[C@@H](C)C(=O)N2CCCCC2)NC(=O)[C@H](C)N(C)C(=O)[C@H](CC(C)C)N(C)C1=O [DP-282] ([NMeβAla][NMeA]F[NMeV]FG[NMeL]L[NMeL][NMeA]D[NMeF]A-Piperidide; lactam N-11) | – | – | 28 ×10⁻⁶ cm/s | 138 µL/min/mg |
| CC[C@H](C)[C@H]1C(=O)N[C@@H](C)C(=O)N(C)[C@@H](CC(C)C)C(=O)N(C)[C@@H](Cc2ccccc2)C(=O)N[C@@H]([C@@H](C)O)C(=O)N(C)[C@@H](C)C(=O)N(C)[C@@H](CC(C)C)C(=O)N(C)[C@@H](Cc2ccccc2)C(=O)N[C@H](C(=O)N(C)[C@@H](Cc2ccccc2)C(=O)N[C@@H](C)C(=O)N2CCCCC2)CC(=O)N(C)CC(=O)N(C)[C@@H](CC(C)C)C(=O)N1C [DP-284] ([Sar][NMeL][NMeI]A[NMeL][NMeF]T[NMeA][NMeL][NMeF]D[NMeF]A-Piperidide; lactam N-11) | – | – | 0.21 ×10⁻⁶ cm/s | 11 µL/min/mg |
| CC(C)C[C@@H]1NC(=O)[C@H](C)N(C)C(=O)CNC(=O)[C@H](C(C)C)N(C)C(=O)[C@H](Cc2ccccc2)NC(=O)[C@H]([C@@H](C)O)NC(=O)[C@H](CC(C)C)N(C)C(=O)CN(C)C(=O)C[C@@H](C(=O)N(C)[C@@H](Cc2ccccc2)C(=O)N[C@@H](C)C(=O)N2CCCCC2)NC(=O)[C@H](C)N(C)C(=O)[C@H](CC(C)C)N(C)C1=O [DP-285] ([Sar][NMeL]TF[NMeV]G[NMeA]L[NMeL][NMeA]D[NMeF]A-Piperidide; lactam N-11) | – | – | 16 ×10⁻⁶ cm/s | 69 µL/min/mg |
| CC[C@H](C)[C@@H]1NC(=O)[C@H](C)N(C)C(=O)[C@H]([C@@H](C)O)NC(=O)[C@H](C(C)C)N(C)C(=O)[C@H](C)N(C)C(=O)[C@H](Cc2ccccc2)NC(=O)[C@H](C)NC(=O)C[C@@H](C(=O)N(C)[C@@H](Cc2ccccc2)C(=O)N[C@@H](C)C(=O)N2CCCCC2)NC(=O)[C@H](C)N(C)C(=O)[C@H](CC(C)C)N(C)C1=O [DP-288] (AF[NMeA][NMeV]T[NMeA]I[NMeL][NMeA]D[NMeF]A-Piperidide; lactam N-10) | – | – | 18 ×10⁻⁶ cm/s | 80 µL/min/mg |
| CC[C@H](C)[C@@H]1NC(=O)[C@H](CC(C)C)N(C)C(=O)CN(C)C(=O)[C@H]([C@@H](C)O)NC(=O)[C@H](CC(C)C)N(C)C(=O)[C@H](Cc2ccccc2)N(C)C(=O)[C@H](C)N(C)C(=O)[C@@H](C)NC(=O)C[C@@H](C(=O)N(C)[C@@H](Cc2ccccc2)C(=O)N[C@@H](C)C(=O)N2CCCCC2)NC(=O)[C@H](C(C)C)N(C)C1=O [DP-290] ([dA][NMeA][NMeF][NMeL]T[Sar][NMeL]I[NMeV]D[NMeF]A-Piperidide; lactam N-10) | 19 ×10⁻⁶ cm/s | 23 µL/min/mg | – | – |
| CC(C)C[C@H]1C(=O)N(C)[C@@H](C(C)C)C(=O)N[C@@H](Cc2ccccc2)C(=O)N[C@H](C(=O)N(C)[C@@H](Cc2ccccc2)C(=O)N[C@@H](C)C(=O)N2CCCCC2)CC(=O)N[C@H](C)C(=O)N[C@@H](C(C)C)C(=O)N(C)[C@@H](CC(C)C)C(=O)N[C@@H]([C@@H](C)O)C(=O)N(C)[C@@H](Cc2ccccc2)C(=O)NCC(=O)N1C [DP-291] ([dA]V[NMeL]T[NMeF]G[NMeL][NMeV]FD[NMeF]A-Piperidide; lactam N-10) | – | – | 14 ×10⁻⁶ cm/s | 97 µL/min/mg |
